ChEMBL document CHEMBL5678810

Key:
[1] = target: Phosphatidylinositol 3-kinase C2 domain-containing subunit gamma (Homo sapiens) (UniProt O75747); assay: Inhibition of T7 bacteriophage fused human PIK3C2G at 10 uM by KINOMEscan analysis relative to control
[2] = target: Mitogen-activated protein kinase 1 (Homo sapiens) (UniProt P28482); assay: Inhibition of T7 bacteriophage fused human ERK2 at 10 uM by KINOMEscan analysis relative to control; values are per cent of control
[3] = target: Bone morphogenetic protein receptor type-1A (Homo sapiens) (UniProt P36894); assay: Inhibition of T7 bacteriophage fused human BMPR1A at 10 uM by KINOMEscan analysis relative to control
[4] = target: Dual specificity mitogen-activated protein kinase kinase 4 (Homo sapiens) (UniProt P45985); assay: Inhibition of T7 bacteriophage fused human MEK4 at 10 uM by KINOMEscan analysis relative to control
[5] = target: Cyclin-dependent kinase 2 (Homo sapiens) (UniProt P24941); assay: Inhibition of T7 bacteriophage fused human CDK2 at 10 uM by KINOMEscan analysis relative to control
[6] = target: Muscle, skeletal receptor tyrosine-protein kinase (Homo sapiens) (UniProt O15146); assay: Inhibition of T7 bacteriophage fused human MUSK at 10 uM by KINOMEscan analysis relative to control; values are per cent of control
[7] = target: Dual specificity protein kinase CLK2 (Homo sapiens) (UniProt P49760); assay: Inhibition of T7 bacteriophage fused human CLK2 at 10 uM by KINOMEscan analysis relative to control; values are per cent of control
[8] = target: Ephrin type-A receptor 2 (Homo sapiens) (UniProt P29317); assay: Inhibition of T7 bacteriophage fused human EPHA2 at 10 uM by KINOMEscan analysis relative to control; values are per cent of control
Chain of Ephrin type-A receptor 2 (Homo sapiens) (P29317 whole entry, the tested form may be a part): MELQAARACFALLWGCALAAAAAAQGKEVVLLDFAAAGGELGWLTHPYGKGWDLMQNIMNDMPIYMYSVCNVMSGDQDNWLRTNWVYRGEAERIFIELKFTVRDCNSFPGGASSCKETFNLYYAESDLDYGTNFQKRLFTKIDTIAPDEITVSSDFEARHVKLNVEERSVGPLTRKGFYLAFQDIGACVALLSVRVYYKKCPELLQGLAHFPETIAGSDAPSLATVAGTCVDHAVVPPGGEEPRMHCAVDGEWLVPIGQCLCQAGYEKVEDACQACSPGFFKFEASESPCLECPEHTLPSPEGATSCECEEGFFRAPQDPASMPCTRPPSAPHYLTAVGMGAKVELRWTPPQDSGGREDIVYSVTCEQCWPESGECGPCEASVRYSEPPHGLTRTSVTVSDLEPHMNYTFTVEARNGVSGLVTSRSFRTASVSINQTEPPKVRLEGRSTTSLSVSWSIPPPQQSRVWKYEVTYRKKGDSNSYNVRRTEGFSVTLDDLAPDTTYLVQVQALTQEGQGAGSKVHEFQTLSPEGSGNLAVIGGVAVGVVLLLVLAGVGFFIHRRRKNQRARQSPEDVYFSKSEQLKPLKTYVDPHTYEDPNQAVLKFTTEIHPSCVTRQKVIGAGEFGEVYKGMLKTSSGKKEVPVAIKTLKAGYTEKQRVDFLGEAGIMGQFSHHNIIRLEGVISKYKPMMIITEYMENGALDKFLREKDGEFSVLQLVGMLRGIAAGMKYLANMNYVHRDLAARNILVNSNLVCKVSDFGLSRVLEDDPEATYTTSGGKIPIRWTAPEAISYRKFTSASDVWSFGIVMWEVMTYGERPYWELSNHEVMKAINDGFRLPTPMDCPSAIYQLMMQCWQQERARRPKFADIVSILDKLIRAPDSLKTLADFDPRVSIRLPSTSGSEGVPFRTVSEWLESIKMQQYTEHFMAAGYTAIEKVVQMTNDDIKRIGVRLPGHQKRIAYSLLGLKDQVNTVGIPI

[9] = target: Ephrin type-A receptor 6 (Homo sapiens) (UniProt Q9UF33); assay: Inhibition of T7 bacteriophage fused human EPHA6 at 10 uM by KINOMEscan analysis relative to control
[10] = target: Macrophage colony-stimulating factor 1 receptor (Homo sapiens) (UniProt P07333); assay: Inhibition of T7 bacteriophage fused human CSF1R at 10 uM by KINOMEscan analysis relative to control; values are per cent of control
[11] = target: Non-receptor tyrosine-protein kinase TNK1 (Homo sapiens) (UniProt Q13470); assay: Inhibition of T7 bacteriophage fused human TNK1 at 10 uM by KINOMEscan analysis relative to control
[12] = target: Tyrosine-protein kinase ABL1 (Homo sapiens) (UniProt P00519); assay: Inhibition of T7 bacteriophage fused human nonphosphorylated ABL1 at 10 uM by KINOMEscan analysis relative to control
[13] = target: Tyrosine-protein kinase ABL1 (Homo sapiens) (UniProt P00519); assay: Inhibition of T7 bacteriophage fused human phosphorylated ABL1 at 10 uM by KINOMEscan analysis relative to control
[14] = target: Ankyrin repeat and protein kinase domain-containing protein 1 (Homo sapiens) (UniProt Q8NFD2); assay: Inhibition of T7 bacteriophage fused human ANKK1 at 10 uM by KINOMEscan analysis relative to control
Chain of Ankyrin repeat and protein kinase domain-containing protein 1 (Homo sapiens) (Q8NFD2 whole entry, the tested form may be a part): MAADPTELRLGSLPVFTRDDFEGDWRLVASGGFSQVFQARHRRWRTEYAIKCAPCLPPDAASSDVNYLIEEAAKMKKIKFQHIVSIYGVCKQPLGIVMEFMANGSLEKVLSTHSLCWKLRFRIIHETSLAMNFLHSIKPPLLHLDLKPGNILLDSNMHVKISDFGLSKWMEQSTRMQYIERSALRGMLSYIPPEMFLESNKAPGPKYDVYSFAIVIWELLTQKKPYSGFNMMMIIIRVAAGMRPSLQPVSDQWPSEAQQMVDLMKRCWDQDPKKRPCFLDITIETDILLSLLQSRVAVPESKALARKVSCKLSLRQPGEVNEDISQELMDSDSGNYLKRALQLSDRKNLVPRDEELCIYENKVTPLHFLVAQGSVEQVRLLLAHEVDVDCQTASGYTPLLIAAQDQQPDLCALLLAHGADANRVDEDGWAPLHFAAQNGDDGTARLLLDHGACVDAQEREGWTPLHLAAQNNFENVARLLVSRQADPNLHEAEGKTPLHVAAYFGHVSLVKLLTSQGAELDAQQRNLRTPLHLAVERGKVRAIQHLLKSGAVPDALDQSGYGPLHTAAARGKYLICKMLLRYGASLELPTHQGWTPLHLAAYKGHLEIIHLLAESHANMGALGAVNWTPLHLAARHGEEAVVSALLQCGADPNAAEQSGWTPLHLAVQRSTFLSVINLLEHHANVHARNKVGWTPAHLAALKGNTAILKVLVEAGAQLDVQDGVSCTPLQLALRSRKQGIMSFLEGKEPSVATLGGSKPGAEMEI

[15] = test system: Epidermal growth factor receptor (Homo sapiens), P00533 [UNDEFINED MUTATION]; assay: Inhibition of T7 bacteriophage fused human EGFR S752-I759del mutant at 10 uM by KINOMEscan analysis relative to control; values are per cent of control
Chain of Epidermal growth factor receptor (Homo sapiens), P00533 [UNDEFINED MUTATION] (P00533 whole entry, looked up, stated change not applied, the tested form may be a part): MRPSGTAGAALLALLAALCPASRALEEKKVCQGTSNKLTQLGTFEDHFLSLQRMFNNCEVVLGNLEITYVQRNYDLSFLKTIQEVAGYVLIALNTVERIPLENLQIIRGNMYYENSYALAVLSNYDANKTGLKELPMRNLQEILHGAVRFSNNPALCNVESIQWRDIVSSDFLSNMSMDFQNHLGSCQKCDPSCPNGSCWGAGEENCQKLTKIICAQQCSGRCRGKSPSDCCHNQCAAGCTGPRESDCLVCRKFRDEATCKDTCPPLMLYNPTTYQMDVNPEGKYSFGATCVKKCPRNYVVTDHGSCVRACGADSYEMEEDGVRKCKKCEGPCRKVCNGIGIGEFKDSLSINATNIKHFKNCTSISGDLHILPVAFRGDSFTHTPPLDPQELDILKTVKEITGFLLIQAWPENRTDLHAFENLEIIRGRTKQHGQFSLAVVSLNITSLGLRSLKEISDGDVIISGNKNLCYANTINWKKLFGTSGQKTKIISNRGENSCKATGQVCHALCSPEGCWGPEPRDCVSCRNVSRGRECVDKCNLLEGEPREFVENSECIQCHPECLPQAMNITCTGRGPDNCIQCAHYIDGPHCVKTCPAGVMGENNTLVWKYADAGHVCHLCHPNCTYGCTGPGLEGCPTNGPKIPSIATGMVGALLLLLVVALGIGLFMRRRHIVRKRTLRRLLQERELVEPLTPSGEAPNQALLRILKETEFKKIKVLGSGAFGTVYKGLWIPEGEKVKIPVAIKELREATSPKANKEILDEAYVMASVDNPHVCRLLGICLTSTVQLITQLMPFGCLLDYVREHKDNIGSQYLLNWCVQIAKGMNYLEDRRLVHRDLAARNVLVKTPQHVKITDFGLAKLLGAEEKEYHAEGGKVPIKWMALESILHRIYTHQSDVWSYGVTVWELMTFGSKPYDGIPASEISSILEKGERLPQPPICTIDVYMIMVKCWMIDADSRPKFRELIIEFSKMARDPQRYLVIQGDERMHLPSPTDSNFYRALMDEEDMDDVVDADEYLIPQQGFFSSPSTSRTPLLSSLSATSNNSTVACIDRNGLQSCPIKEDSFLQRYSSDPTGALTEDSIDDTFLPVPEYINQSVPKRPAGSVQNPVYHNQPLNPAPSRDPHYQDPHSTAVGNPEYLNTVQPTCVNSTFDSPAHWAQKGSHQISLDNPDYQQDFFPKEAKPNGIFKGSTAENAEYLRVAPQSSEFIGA

[16] = target: Tyrosine-protein kinase FRK (Homo sapiens) (UniProt P42685); assay: Inhibition of T7 bacteriophage fused human FRK at 10 uM by KINOMEscan analysis relative to control; values are per cent of control
[17] = test system: Tyrosine-protein kinase ABL1 (Homo sapiens), P00519 [H396P]; assay: Inhibition of T7 bacteriophage fused human nonphosphorylated ABL1 H396P mutant at 10 uM by KINOMEscan analysis relative to control
[18] = target: Ribosomal protein S6 kinase alpha-6 (Homo sapiens) (UniProt Q9UK32); assay: Inhibition of T7 bacteriophage fused human C-terminal RSK4 Kinase domain-2 at 10 uM by KINOMEscan analysis relative to control
[19] = target: Mitogen-activated protein kinase 8 (Homo sapiens) (UniProt P45983); assay: Inhibition of T7 bacteriophage fused human JNK1 at 10 uM by KINOMEscan analysis relative to control; values are per cent of control
[20] = test system: Mast/stem cell growth factor receptor Kit (Homo sapiens), P10721 [V559D,V654A]; assay: Inhibition of T7 bacteriophage fused human KIT V559D/V654A mutant at 10 uM by KINOMEscan analysis relative to control
[21] = target: Mitogen-activated protein kinase kinase kinase 13 (Homo sapiens) (UniProt O43283); assay: Inhibition of T7 bacteriophage fused human LZK at 10 uM by KINOMEscan analysis relative to control
Chain of Mitogen-activated protein kinase kinase kinase 13 (Homo sapiens) (O43283 whole entry, the tested form may be a part): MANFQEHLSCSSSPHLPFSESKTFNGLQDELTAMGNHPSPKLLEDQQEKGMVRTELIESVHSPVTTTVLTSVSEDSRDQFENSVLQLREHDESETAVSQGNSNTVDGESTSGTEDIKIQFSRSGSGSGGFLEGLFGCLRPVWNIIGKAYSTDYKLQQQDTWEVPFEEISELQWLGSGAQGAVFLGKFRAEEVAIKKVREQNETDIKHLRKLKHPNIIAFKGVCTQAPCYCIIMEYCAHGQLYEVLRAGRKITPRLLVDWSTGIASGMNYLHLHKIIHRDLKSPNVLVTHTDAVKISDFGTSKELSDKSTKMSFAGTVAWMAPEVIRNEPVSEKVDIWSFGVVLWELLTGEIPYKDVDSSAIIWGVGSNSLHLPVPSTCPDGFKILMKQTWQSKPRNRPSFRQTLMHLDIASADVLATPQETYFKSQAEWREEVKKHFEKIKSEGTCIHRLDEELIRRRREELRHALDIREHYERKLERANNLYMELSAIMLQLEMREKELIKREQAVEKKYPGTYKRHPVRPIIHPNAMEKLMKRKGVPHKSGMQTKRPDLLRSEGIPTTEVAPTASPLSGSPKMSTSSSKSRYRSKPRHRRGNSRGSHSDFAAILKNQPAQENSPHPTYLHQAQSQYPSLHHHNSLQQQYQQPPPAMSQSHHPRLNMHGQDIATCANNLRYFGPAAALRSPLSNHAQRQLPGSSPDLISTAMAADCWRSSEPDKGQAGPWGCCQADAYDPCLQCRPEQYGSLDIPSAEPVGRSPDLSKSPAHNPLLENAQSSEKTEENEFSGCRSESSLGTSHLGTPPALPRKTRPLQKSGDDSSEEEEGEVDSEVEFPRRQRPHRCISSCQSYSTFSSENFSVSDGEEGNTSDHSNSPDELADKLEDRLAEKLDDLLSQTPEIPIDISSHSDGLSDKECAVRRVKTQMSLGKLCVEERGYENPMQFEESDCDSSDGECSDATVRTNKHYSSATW

[22] = target: Serine/threonine-protein kinase PLK1 (Homo sapiens) (UniProt P53350); assay: Inhibition of T7 bacteriophage fused human PLK1 at 10 uM by KINOMEscan analysis relative to control
[23] = target: Tyrosine-protein kinase ZAP-70 (Homo sapiens) (UniProt P43403); assay: Inhibition of T7 bacteriophage fused human ZAP70 at 10 uM by KINOMEscan analysis relative to control
[24] = test system: Epidermal growth factor receptor (Homo sapiens), P00533 [UNDEFINED MUTATION]; assay: Inhibition of T7 bacteriophage fused human EGFR L747/E749del/A750P mutant at 10 uM by KINOMEscan analysis relative to control; values are per cent of control
[25] = test system: Fibroblast growth factor receptor 3 (Homo sapiens), P22607 [G697C]; assay: Inhibition of T7 bacteriophage fused human FGFR3 G697C mutant at 10 uM by KINOMEscan analysis relative to control
Chain of Fibroblast growth factor receptor 3 (Homo sapiens), P22607 [G697C] (P22607 whole entry G697C, the tested form may be a part): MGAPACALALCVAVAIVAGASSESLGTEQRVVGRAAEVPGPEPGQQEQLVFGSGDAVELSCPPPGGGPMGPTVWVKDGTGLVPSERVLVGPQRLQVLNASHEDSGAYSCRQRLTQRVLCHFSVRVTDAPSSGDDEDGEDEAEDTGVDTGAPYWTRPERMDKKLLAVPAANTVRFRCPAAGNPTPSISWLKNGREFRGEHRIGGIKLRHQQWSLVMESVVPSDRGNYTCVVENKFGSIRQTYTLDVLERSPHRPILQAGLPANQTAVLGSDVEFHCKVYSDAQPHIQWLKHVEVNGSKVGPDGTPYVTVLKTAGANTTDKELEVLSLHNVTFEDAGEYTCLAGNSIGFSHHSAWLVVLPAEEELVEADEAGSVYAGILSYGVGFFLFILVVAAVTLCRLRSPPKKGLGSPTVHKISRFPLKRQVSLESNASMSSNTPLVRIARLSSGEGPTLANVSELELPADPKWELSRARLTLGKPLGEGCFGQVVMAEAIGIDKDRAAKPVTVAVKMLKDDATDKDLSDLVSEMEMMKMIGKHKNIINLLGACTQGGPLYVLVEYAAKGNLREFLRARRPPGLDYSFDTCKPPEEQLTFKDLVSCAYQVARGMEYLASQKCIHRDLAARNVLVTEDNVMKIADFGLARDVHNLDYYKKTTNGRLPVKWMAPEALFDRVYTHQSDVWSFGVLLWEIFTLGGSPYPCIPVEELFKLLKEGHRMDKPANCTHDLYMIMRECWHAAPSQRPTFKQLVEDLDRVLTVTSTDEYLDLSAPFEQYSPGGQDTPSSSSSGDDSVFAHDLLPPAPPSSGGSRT

[26] = test system: Proto-oncogene tyrosine-protein kinase receptor Ret (Homo sapiens), P07949 [M918T]; assay: Inhibition of T7 bacteriophage fused human RET M918T mutant at 10 uM by KINOMEscan analysis relative to control
[27] = test system: Phosphatidylinositol 4,5-bisphosphate 3-kinase catalytic subunit alpha isoform (Homo sapiens), P42336 [E545A]; assay: Inhibition of T7 bacteriophage fused human PIK3CA E545A mutant at 10 uM by KINOMEscan analysis relative to control
[28] = target: Tyrosine-protein kinase Fer (Homo sapiens) (UniProt P16591); assay: Inhibition of T7 bacteriophage fused human FER at 10 uM by KINOMEscan analysis relative to control; values are per cent of control
[29] = target: Casein kinase I isoform epsilon (Homo sapiens) (UniProt P49674); assay: Inhibition of T7 bacteriophage fused human CSNK1E at 10 uM by KINOMEscan analysis relative to control

Chain of Mitogen-activated protein kinase 1 (Homo sapiens) (P28482 whole entry, the tested form may be a part): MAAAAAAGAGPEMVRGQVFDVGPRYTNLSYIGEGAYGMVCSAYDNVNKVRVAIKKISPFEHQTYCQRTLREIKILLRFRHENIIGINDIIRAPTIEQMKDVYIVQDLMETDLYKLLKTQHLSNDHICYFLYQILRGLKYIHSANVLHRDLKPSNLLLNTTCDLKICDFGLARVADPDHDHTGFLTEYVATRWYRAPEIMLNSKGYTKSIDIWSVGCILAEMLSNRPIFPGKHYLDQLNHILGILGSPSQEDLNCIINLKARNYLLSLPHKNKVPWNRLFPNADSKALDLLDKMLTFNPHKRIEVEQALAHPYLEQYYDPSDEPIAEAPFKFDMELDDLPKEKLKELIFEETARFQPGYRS

COc1cc(N2CCC(N3CCN(C)CC3)CC2)ccc1Nc1ncc2c(n1)N(C)c1ccccc1C(=O)N2C showed an inhibition [1] of 100%, a residual activity [2] of 85% and an inhibition [3] of 100%. For the same molecule, the inhibition [4] was 100%, the inhibition [5] was 100% and the residual activity [6] was 99%. It also gave a residual activity [7] of 72%, a residual activity [8] of 92% and an inhibition [9] of 89%. It also gave a residual activity [10] of 98%, an inhibition [11] of 2.8% and an inhibition [12] of 100%. The inhibition [13] was 82%, the inhibition [14] was 100% and the residual activity [15] was 99%. For the same molecule, the residual activity [16] was 34%, the inhibition [17] was 100% and the inhibition [18] was 2.2%. It also gave a residual activity [19] of 95%, an inhibition [20] of 100% and an inhibition [21] of 100%. The inhibition [22] was 0.7%, the inhibition [23] was 79% and the residual activity [24] was 78%. The inhibition [25] was 85%, the inhibition [26] was 100% and the inhibition [27] was 98%. The residual activity [28] was 51% and the inhibition [29] was 95%.
